Data published in US11957759B1, “Rapidly accelerated fibrosarcoma (RAF) degrading compounds and associated methods of use” (Arvinas Operations, Inc., priority 2022, dated 2024).

Tests used:
B-RAF G466V = molecular target: T1, B-RAF G466V (Homo sapiens, UniProt P15056, G466V); test: Target protein degradation, assay D: T-Rex 293 cells, HA-BRAF_G466V, 384 well format; type: cell-based; conditions: T-Rex 293 HA-BRAF_G466V cells, 24 hours, Examples 83-269; for DC50: Assay D; for Dmax: T-REx-293, Assay D
T1 construct: expressed in transfected cells; host or cells: T-Rex 293 cells (Invitrogen #R71007)
T1 sequence (P15056 whole entry G466V): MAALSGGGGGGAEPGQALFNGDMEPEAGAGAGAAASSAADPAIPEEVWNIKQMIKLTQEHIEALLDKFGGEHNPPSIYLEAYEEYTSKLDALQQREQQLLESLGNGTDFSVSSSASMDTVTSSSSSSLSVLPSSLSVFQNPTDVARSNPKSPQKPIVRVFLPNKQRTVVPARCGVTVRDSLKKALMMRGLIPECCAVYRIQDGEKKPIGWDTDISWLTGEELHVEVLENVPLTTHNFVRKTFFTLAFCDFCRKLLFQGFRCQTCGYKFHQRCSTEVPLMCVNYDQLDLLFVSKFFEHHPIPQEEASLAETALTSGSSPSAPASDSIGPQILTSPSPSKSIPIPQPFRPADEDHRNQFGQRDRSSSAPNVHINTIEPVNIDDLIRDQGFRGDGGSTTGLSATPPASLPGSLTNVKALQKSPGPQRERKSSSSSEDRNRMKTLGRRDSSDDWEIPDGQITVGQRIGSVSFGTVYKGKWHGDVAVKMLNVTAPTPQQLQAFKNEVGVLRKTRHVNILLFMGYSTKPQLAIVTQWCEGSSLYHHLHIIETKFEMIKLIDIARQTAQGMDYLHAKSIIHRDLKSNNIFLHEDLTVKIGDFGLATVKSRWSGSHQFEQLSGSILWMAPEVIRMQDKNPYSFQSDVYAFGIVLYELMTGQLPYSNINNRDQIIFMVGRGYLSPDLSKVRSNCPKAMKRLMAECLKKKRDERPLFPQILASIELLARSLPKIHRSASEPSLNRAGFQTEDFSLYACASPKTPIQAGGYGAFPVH
In short: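 T-Rex 293 cells stably expressing doxycycline-induced (1 ng/mL) HA-BRAF G466V treated 24 h at 37 °C with PROTACs, 11-point 1:3 dilution, 300 nM to 5 pM final, 0.5% DMSO. Fixed cells immunostained for HA and imaged by high-content microscopy; DC50 and Dmax (% of control) derived, toxicity from nuclei counts versus DMSO.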

B-RAF V600E = molecular target: T2, B-RAF V600E (Homo sapiens, UniProt P15056, V600E); test: Target protein degradation, assay C: T-Rex 293 cells, HA-BRAF_V600E, 384 well format; type: cell-based; conditions: T-Rex 293 HA-BRAF_V600E cells, 24 hours, Examples 83-269; for DC50: Assay C; for Dmax: T-REx-293, Assay C
T2 construct: expressed in transfected cells; host or cells: T-Rex 293 cells (Invitrogen #R71007)
T2 sequence (P15056 whole entry V600E): as the sequence (P15056 whole entry G466V) above, with V466G, V600E counted along it
In short: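 T-Rex 293 cells stably expressing doxycycline-induced (1 ng/mL) HA-BRAF V600E were treated 24 h at 37 °C with compound (300 nM–5 pM, 11 points, 0.5% DMSO). HA immunofluorescence was quantified by high-content imaging to give DC50 and Dmax (% of control); nuclei counts versus DMSO gauged toxicity.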

Row | DC50 (B-RAF G466V) | Dmax (B-RAF G466V) | DC50 (B-RAF V600E) | Dmax (B-RAF V600E) | SMILES
1 | 1 to 10 nM | ≥ 70% | 50 to 500 nM | 35 to 70% | N#Cc1c(NS(=O)(=O)N2CC[C@@H](F)C2)ccc(F)c1Oc1ccc2ncn(-c3ccc(C4CCN(CC5CN(c6ccc7c(c6)CN([C@H]6CCC(=O)NC6=O)C7=O)C5)CC4)cc3)c(=O)c2c1 [Example 256, (3R)-N-(2-cyano-3-([3-(4-{1-[(1-{2-[(3S)-2,6-dioxopiperidin-3-yl]-1-oxo-2,3-dihydro-1H-isoindol-5-yl}azetidin-3-yl)methyl]piperidin-4-yl}phenyl)-4-oxo-3,4-dihydroquinazolin-6-yl]oxy}-4-fluorophenyl)-3-fluoropyrrolidine-1-sulfonamide]
2 | 1 to 10 nM | 35 to 70% | 50 to 500 nM | 35 to 70% | N#Cc1c(NS(=O)(=O)N2CC[C@H](F)C2)ccc(F)c1Oc1ccc2ncn(-c3ccc(N4CCN(CC5CN(c6ccc7c(c6)CN([C@@H]6CCC(=O)NC6=O)C7=O)C5)CC4)cc3)c(=O)c2c1 [Example 196, (3S)-N-(2-cyano-3-{[3-(4-{4-[(1-{2-[(3R)-2,6-dioxopiperidin-3-yl]-1-oxo-2,3-dihydro-1H-isoindol-5-yl}azetidin-3-yl)methyl]piperazin-1-yl}phenyl)-4-oxo-3,4-dihydroquinazolin-6-yl]oxy}-4-fluorophenyl)-3-fluoropyrrolidine-1-sulfonamide]
3 | 1 to 10 nM | 35 to 70% | 50 to 500 nM | ≤ 35% | N#Cc1c(NS(=O)(=O)N2CC[C@@H](F)C2)ccc(F)c1Oc1ccc2ncn(-c3ccc(C4CCC5(CC4)CCN(CC4CCN(c6ccc7c(c6)CN([C@H]6CCC(=O)NC6=O)C7=O)CC4)CC5)cc3)c(=O)c2c1 [Example 226, (3R)-N-(2-cyano-3-{[3-(4-{3-[(1-{2-[(3S)-2,6-dioxopiperidin-3-yl]-1-oxo-2,3-dihydro-1H-isoindol-5-yl}piperidin-4-yl)methyl]-3-azaspiro[5.5]undecan-9-yl}phenyl)-4-oxo-3,4-dihydroquinazolin-6-yl]oxy}-4-fluorophenyl)-3-fluoropyrrolidine-1-sulfonamide]
4 | 1 to 10 nM | 35 to 70% | 50 to 500 nM | 35 to 70% | N#Cc1c(NS(=O)(=O)N2CC[C@@H](F)C2)ccc(F)c1Oc1ccc2ncn(-c3ccc(N4CCC(CN5CCC(c6ccc7c(c6)CN([C@H]6CCC(=O)NC6=O)C7=O)CC5)C4)cc3)c(=O)c2c1 (stereo partly drawn) [Example 221, (3R)-N-(2-cyano-3-{[3-(4-{3-[(4-{2-[(3S)-2,6-dioxopiperidin-3-yl]-1-oxo-2,3-dihydro-1H-isoindol-5-yl}piperidin-1-yl)methyl]pyrrolidin-1-yl}phenyl)-4-oxo-3,4-dihydroquinazolin-6-yl]oxy}-4-fluorophenyl)-3-fluoropyrrolidine-1-sulfonamide]

More lines, now with the values behind:

Row | SMILES | DC50 (B-RAF G466V) | Dmax (B-RAF G466V) | DC50 (B-RAF V600E) | Dmax (B-RAF V600E)
5 | C[C@H]1CN(CC2CCN(c3ccc4c(c3)CN([C@H]3CCC(=O)NC3=O)C4=O)CC2)CCN1c1ccc(-n2cnc3ccc(Oc4c(F)ccc(NS(=O)(=O)N5CC[C@@H](F)C5)c4C#N)cc3c2=O)cc1 [Example 84, (3R)-N-{2-cyano-3-[(3-(4-[(2S)-4-[(1-{2-[(3S)-2,6-dioxopiperidin-3-yl]-1-oxo-2,3-dihydro-1H-isoindol-5-yl}piperidin-4-yl)methyl]-2-methylpiperazin-1-yl]phenyl}-4-oxo-3,4-dihydroquinazolin-6-yl)oxy]-4-fluorophenyl}-3-fluoropyrrolidine-1-sulfonamide] | ≤ 1 nM | 35 to 70% | 5 to 50 nM | 35 to 70%
6 | N#Cc1c(NS(=O)(=O)N2CC[C@@H](F)C2)ccc(F)c1Oc1ccc2ncn(-c3cnc(N4CCN(c5ccc6c(c5)CN(C5CCC(=O)NC5=O)C6=O)CC4)nc3)c(=O)c2c1 (stereo partly drawn) [Example 127, (3R)-N-(2-cyano-3-{[3-(2-{4-[2-(2,6-dioxopiperidin-3-yl)-1-oxo-2,3-dihydro-1H-isoindol-5-yl]piperazin-1-yl}pyrimidin-5-yl)-4-oxo-3,4-dihydroquinazolin-6-yl]oxy}-4-fluorophenyl)-3-fluoropyrrolidine-1-sulfonamide] | > 30 nM |  | 50 to 500 nM | 35 to 70%
7 | N#Cc1c(NS(=O)(=O)N2CC[C@@H](F)C2)ccc(F)c1Oc1ccc2ncn(-c3ccc(N4CCN(CC5CCN(c6ccc(C7CCC(=O)NC7=O)cc6F)CC5)CC4)cc3)c(=O)c2c1 (single isomer, unassigned) [Example 112, (3R)-N-(2-cyano-3-{[3-(4-{4-[(1-{4-[(3R*)-2,6-dioxopiperidin-3-yl]-2-fluorophenyl}piperidin-4-yl)methyl]piperazin-1-yl}phenyl)-4-oxo-3,4-dihydroquinazolin-6-yl]oxy}-4-fluorophenyl)-3-fluoropyrrolidine-1-sulfonamide] | 1 to 10 nM | 35 to 70% | 5 to 50 nM | 35 to 70%
8 | N#Cc1c(NS(=O)(=O)N2CC[C@@H](F)C2)ccc(F)c1Oc1ccc2ncn(-c3ccc(N4CCC(CCN5CCN(c6ccc7c(c6)C(=O)N(C6CCC(=O)NC6=O)C7=O)CC5)CC4)nc3)c(=O)c2c1 (stereo partly drawn) [Example 163, (3R)-N-{2-cyano-3-[(3-{6-[4-(2-{4-[2-(2,6-dioxopiperidin-3-yl)-1,3-dioxo-2,3-dihydro-1H-isoindol-5-yl]piperazin-1-yl}ethyl)piperidin-1-yl]pyridin-3-yl}-4-oxo-3,4-dihydroquinazolin-6-yl)oxy]-4-fluorophenyl}-3-fluoropyrrolidine-1-sulfonamide] | 10 to 30 nM | ≤ 35% | 50 to 500 nM | 35 to 70%
9 | COc1cc(-n2cnc3ccc(Oc4c(F)ccc(NS(=O)(=O)N5CC[C@@H](F)C5)c4C#N)cc3c2=O)ccc1N1CCN(CC2CCN(c3ccc4c(c3)CN(C3CCC(=O)NC3=O)C4=O)CC2)CC1 (stereo partly drawn) [Example 88, (3R)-N-{2-cyano-3-[(3-{4-[4-({1-[2-(2,6-dioxopiperidin-3-yl)-1-oxo-2,3-dihydro-1H-isoindol-5-yl]piperidin-4-yl}methyl)piperazin-1-yl]-3-methoxyphenyl}-4-oxo-3,4-dihydroquinazolin-6-yl)oxy]-4-fluorophenyl}-3-fluoropyrrolidine-1-sulfonamide] | ≤ 1 nM | 35 to 70% | 5 to 50 nM | ≤ 35%
10 | CN(c1ccc2c(c1)CN([C@H]1CCC(=O)NC1=O)C2=O)[C@H]1CC[C@@H](N2CCN(c3ccc(-n4cnc5ccc(Oc6c(F)ccc(NS(=O)(=O)N7CC[C@@H](F)C7)c6C#N)cc5c4=O)cc3)CC2)CC1 [Example 230, (3R)-N-(2-cyano-4-fluoro-3-{[4-oxo-3-(4-(4-[(1r,4r)-4-({2-[(3S)-2,6-dioxopiperidin-3-yl]-1-oxo-2,3-dihydro-1H-isoindol-5-yl}(methyl)amino)cyclohexyl]piperazin-1-yl}phenyl)-3,4-dihydroquinazolin-6-yl]oxy}phenyl)-3-fluoropyrrolidine-1-sulfonamide] | 1 to 10 nM | 35 to 70% | 50 to 500 nM | 35 to 70%
11 | O=C1CCC(N2Cc3cc(N4CCC(CN5CCN(c6ccc(-n7cnc8ccc(Oc9c(F)ccc(NS(=O)(=O)N%10CC[C@@H](F)C%10)c9F)cc8c7=O)cc6)CC5)CC4)ccc3C2=O)C(=O)N1 (stereo partly drawn) [Example 177, (3R)—N-{3-[(3-{4-[4-({1-[2-(2,6-dioxopiperidin-3-yl)-1-oxo-2,3-dihydro-1H-isoindol-5-yl]piperidin-4-yl}methyl)piperazin-1-yl]phenyl}-4-oxo-3,4-dihydroquinazolin-6-yl)oxy]-2,4-difluorophenyl}-3-fluoropyrrolidine-1-sulfonamide] | 1 to 10 nM | 35 to 70% | 5 to 50 nM | 35 to 70%
